Laboratory results taken from patent publication US4183909A, “Phenylglycine-containing new peptides with gastrine effects and a process for the preparation thereof” (Richter Gedeon Vegyeszeti Gyar Rt., priority 1976, dated 1980).
Square brackets hold non-standard residues; d marks the D form. Peptide text beside a SMILES is read from it. * marks the point of attachment. dPhg = N[C@@H](C(=O)O)c1ccccc1; Phg = N[C@H](C(=O)O)c1ccccc1; X1 = CC(C)(C)OC(=O)NOCC(=O)*

Legend:
gastric acid secretion [1] = experiment: Gastric acid secretion increasing effect, administered parenterally or enterally (methods of Ghosh and Schild and of Lai, modified by Pissidis and Clark); format: in vivo
Experimental: The biological activities of the new compounds according to the invention were tested by the methods of Ghosh and Schild (Br. J. Pharmac. Chemoth. 13, 54 1958) and Lai (Gut 5, 327 1964), modified by Pissidis and Clark (Gut 8, 196 1967). The pharmacological tests have shown that the new compounds, when administered intravenously, increase the gastric acid secretion to a great extent. […] It is also remarkable that some of the new compounds highly increase the gastric acid secretion after resorption from the rectum.

gastric acid secretion [2] = conditions: in vivo; cited from earlier work

CSCC[C@H](NC(=O)[C@H](Cc1c[nH]c2ccccc12)NC(=O)CONC(=O)OC(C)(C)C)C(=O)N[C@@H](CC(=O)O)C(=O)N[C@@H](C(N)=O)c1ccccc1 [BOC-OGly Met D, 2-(tert.-Butoxycarbonyl-aminooxy)-acetyl-L-tryptophyl-L-methionyl-L-aspartyl-D-phenylglycine-amide] (X1-WMD[dPhg]-NH2)
Gastric acid secretion increasing effect in comparison with that of a 0.2 μg/100 g i.v. dosage of pentagastrin (gastric acid secretion [1]; 0.2 μg i.v.): 28 | Gastric acid secretion increasing effect in comparison with that of a 0.2 μg/100 g i.v. dosage of pentagastrin (gastric acid secretion [1]; 2.0 μg i.v.): 50

CSCC[C@H](NC(=O)[C@H](Cc1c[nH]c2ccccc12)NC(=O)CONC(=O)OC(C)(C)C)C(=O)N[C@@H](CC(=O)O)C(=O)N[C@H](C(N)=O)c1ccccc1 [BOC-OGly Met L, 2-(tert.-Butoxycarbonyl-aminooxy)-acetyl-L-tryptophyl-L-methionyl-L-aspartyl-L-phenylglycine-amide] (X1-WMD[Phg]-NH2)
Gastric acid secretion increasing effect in comparison with that of a 0.2 μg/100 g i.v. dosage of pentagastrin (gastric acid secretion [1]; 2.0 μg i.v.): 116 | Gastric acid secretion increasing effect in comparison with that of a 0.2 μg/100 g i.v. dosage of pentagastrin (gastric acid secretion [1]; 20 μg intestinal (text: 20 μg/100 g body weight)): 124 | Gastric acid secretion increasing effect in comparison with that of a 0.2 μg/100 g i.v. dosage of pentagastrin (gastric acid secretion [1]; 20 μg rectal): 38

CSCC[C@H](NC(=O)[C@H](Cc1c[nH]c2ccccc12)NC(=O)CCNC(=O)OC(C)(C)C)C(=O)N[C@@H](CC(=O)O)C(=O)N[C@@H](Cc1ccccc1)C(N)=O [pentagastrin, BOC-β-Ala-Trp-Met-Asp-Phe-NH2, reference compound]
Effect on gastric acid secretion (gastric acid secretion [1]; administered enterally, even in higher dosages): does not increase the gastric acid secretion

H-Trp-Met-Asp-Phe-NH2
Gastric acid secretion stimulating effect relative to the total hormone (gastrin) (gastric acid secretion [2]): lower by about one order of magnitude
